“Also recorded” adds a separate entry of the source. Read-outs that look alike come from different tables or passages of the source.
Key:
Pseudomonas aeruginosa = assay: Broth microdilution MIC/MBC; format: cell-based; settings: P. aeruginosa, antibiotic alone, unit not given
Source text: (§1) Staphylococcus aureus CCUG 35601 (MRSA, Culture Collection, University of Gothenburg) and Staphylococcus aureus ATCC 29213 (MSSA, ATCC, Manassas, VA). Staphylococcus epidermidis ATCC 12228 (ATCC, Manassas, VA), RP62A, N15 and 10 clinical isolates of Staphylococcus epidermidis that have previously been characterized. Isolated Escherichia coli, Enterococcus faecium (including VRE), Pseudomonas aeruginosa, Klebsiella pneumoniae, Enterobacter spp and Acinetobacter baumannii were obtained from Orebro University hospital. Isolated Streptococcus mutans, Streptococcus constellatus and Streptococcus anginosus were obtained from Malmo University. The bacteria were grown on Luria-Bertani (LB) agar plates, supplemented with 5% defibrinated horse blood, and incubated at 37° C. overnight. Single colonies were inoculated into 5 ml of LB broth and incubated on a shaker (300 rpm) at 37° C. overnight. The bacterial concentration was determined by viable count and adjusted to correlate with approximately 10^9 CFU/ml.
(§2) The broth microdilution method was used to determine minimal inhibitory concentration (MIC) and minimal bactericidal concentration (MBC). Two-fold serial dilutions of the peptides were used and the final concentrations ranged from 0.097-50 μM. […] The effect of bacteriocin-antibiotic combinations was accomplished by using the same concentration series of antibiotics with a constant concentration of PLNC8 αβ (3.1 μM) in all the wells. […] All experiments were repeated at least three times.

[1] = test system: S. epidermidis ATCC 12228; assay: Broth microdilution MIC/MBC; format: cell-based, Staphylococcus epidermidis; settings: for enhancement of the inhibitory effects of β1-20 and β7-20: co-incubation with α-peptide; for inhibitory and bactericidal effects on S. epidermidis: α-peptide in combination with the β-peptide; for growth inhibition of S. epidermidis: single full-length or truncated peptide
Source text: as §1, §2

S. epidermidis = assay: Broth microdilution MIC/MBC, strain not named; format: cell-based, Staphylococcus epidermidis; settings: for MBC / MIC: Table 8, antibiotic alone
Source text: as §1, §2

Escherichia coli = assay: Broth microdilution MIC/MBC; format: cell-based; settings: antibiotic alone, unit not given; for MBC: in µg/mL
Source text: as §1, §2

Enterococcus faecium = assay: Broth microdilution MIC/MBC; format: cell-based; settings: antibiotic alone, unit inferred; for MIC: unit assumed
Source text: as §1, §2

[2] = test system: S. epidermidis 157 (hGISE strain); assay: Broth microdilution MIC/MBC; format: cell-based, Staphylococcus epidermidis
Source text: as §1, §2

S. epidermidis 154 = assay: Broth microdilution MIC/MBC; format: cell-based, Staphylococcus epidermidis
Source text: as §1, §2

[3] = test system: S. epidermidis 126 (hGISE strain); assay: Broth microdilution MIC/MBC; format: cell-based, Staphylococcus epidermidis
Source text: as §1, §2

[4] = test system: S. aureus CCUG 35601 (MRSA); assay: Broth microdilution MIC/MBC; format: cell-based, Staphylococcus aureus
Source text: as §1, §2

[5] = Fluorescence leakage assay (CF release from liposomes); settings: for disruption of liposome membranes (CF release): peptide alone; for lysis of liposomes: after 2 min, both the L-form and D-form
Description: Liposomes were prepared by dry film formation, hydration and finally extrusion through a polycarbonate membrane to form monodisperse large unilamellar vesicles. […] A dry lipid film was formed by evaporation of the chloroform by nitrogen flow and overnight lyophilization. The film was hydrated with either 10 mM phosphate buffer (PB) pH 7 or 10 mM phosphate buffer saline (PBS) pH 7, and the solution was vortexed for 1 min and put on a shaker for 1 h before extruded 21 times through a 100 nm pore-sized polycarbonate membrane. For fluorescence leakage assay the lipid film was hydrated with buffer (PBS) containing self-quenching concentration (50 mM) of 5(6)-carboxyfluorescein (CF) (Sigma Aldrich) and liposomes were prepared as described above. Removal of unencapsulated CF was done by gel filtration using a PD-25 column (GE Healthcare, Uppsala, Sweden) and liposomes with encapsulated CF were eluted with PBS. Leakage of the liposome encapsulated fluorophore CF due to additions of the bacteriocins was recorded using a fluorescence plate reader (Infinite 200, Tecan, Austria) where λex=485 nm and λem=520 nm. CF was encapsulated at self-quenching concentration, and CF release results in an increased fluorescence signal. […] In order to estimate the maximum release from each sample a final addition of 0.5% Triton X-100 was made at the end of all measurements and the total amount of CF (100% release) was estimated after 15 min incubation. The CF release is presented as percentage release for each time interval (measurements taken every minute). The percentage CF release is calculated as 100×(F−F0)/(FT−F0) where F0 is the initial fluorescence intensity of CF before peptide addition, F is the fluorescence intensity of CF at time point t and FT is the maximum fluorescence after the addition of Triton X-100.

[6] = test system: S. epidermidis RP62A biofilms; assay: Bacterial biofilm disruption; format: cell-based, Staphylococcus epidermidis; settings: 1 h
Description: S. epidermidis RP62A was inoculated into 5 ml of LB broth and incubated on a shaker at 37° C. overnight. The bacterial culture was diluted 1:100 into fresh media and 100 μl of bacterial suspension per well was added in a 96-well microtiter plate and incubated statically at 37° C. for 20 h. The wells were washed three times by submerging the plate into a container with distilled water to remove unattached cells. Fresh LB media was added to each well (100 μl) followed by addition of the peptides in different concentrations. The plate was incubated statically for 1 h. Detached material in the wells were transferred to a new microtiter plate for absorbance measurements at 620 nm. The remaining attached biofilms were stained with 0.1% crystal violet for 15 min before the plate was washed four times in distilled water as mentioned above and allowed to dry at room temperature for 2 h. The crystal violet was solubilized in 30% acetic acid for 15 min and the absorbance quantified at 550 nm. Each experiment, with three replicates, was repeated three times.

[7] = Non-ESBL E. coli, first isolate
[8] = Non-ESBL E. coli, second isolate
[9] = Vancomycin resistant E. faecium (VRE)
[10] = Staphylococcus epidermidis, ATCC12228
[11] = Staphylococcus epidermidis, 154
[12] = ESBL-producing E. coli, first isolate
[13] = ESBL-producing E. coli, second isolate
[14] = Table 3, MRSA, antibiotic alone

C[C@H]1COc2c(N3CCN(C)CC3)c(F)cc3c(=O)c(C(=O)O)cn1c23 [Levofloxacin, reference compound]
MBC (Pseudomonas aeruginosa; first isolate): 2
MIC (Pseudomonas aeruginosa; first isolate): 1
MBC (Pseudomonas aeruginosa; second isolate): 4
MIC (Pseudomonas aeruginosa; second isolate): 4

C[C@@H](O)[C@H]1C(=O)N2C(C(=O)O)=C(S[C@@H]3CN[C@H](C(=O)N(C)C)C3)[C@H](C)[C@H]12 [Meropenem, reference compound]
MBC (Pseudomonas aeruginosa; first isolate): 50
MIC (Pseudomonas aeruginosa; first isolate): 25
MBC (Pseudomonas aeruginosa; second isolate): 25
MIC (Pseudomonas aeruginosa; second isolate): 25

CO[C@H]1/C=C/O[C@@]2(C)Oc3c(C)c(O)c4c(O)c(c(/C=N/N5CCN(C)CC5)c(O)c4c3C2=O)NC(=O)/C(C)=C\C=C\[C@H](C)[C@H](O)[C@@H](C)[C@@H](O)[C@@H](C)[C@H](OC(C)=O)[C@@H]1C [Rifampicin]
MBC ([1]; Staphylococcus epidermidis, ATCC12228, Table 2, antibiotic alone, read-out: MBC): 0.5 µg/mL
MIC ([1]; Staphylococcus epidermidis, ATCC12228, Table 2, antibiotic alone, read-out: MIC): 0.25 µg/mL
MBC (S. epidermidis; Staphylococcus epidermidis, read-out: MBC): 0.5 µg/mL
MIC (S. epidermidis; Staphylococcus epidermidis, read-out: MIC): 0.25 µg/mL
effective amount of rifampicin (S. epidermidis; in the presence of L-PLNC8 αβ or D-PLNC8 αβ): 0.0019 µg/mL
MIC (Escherichia coli; [7]): 6.25
MIC (Escherichia coli; [8]): 6.25
MBC (Escherichia coli; [8]): 25
MBC (Enterococcus faecium; E. faecium, first isolate): > 50 µg/mL
MIC (Enterococcus faecium; E. faecium, first isolate): > 50 µg/mL
MBC (Enterococcus faecium; E. faecium, second isolate): > 50 µg/mL
MIC (Enterococcus faecium; E. faecium, second isolate): 25 µg/mL
MBC (Enterococcus faecium; [9]): 3.1 µg/mL
MIC (Enterococcus faecium; [9]): < 0.097 µg/mL

CN[C@H](CC(C)C)C(=O)N[C@H]1C(=O)N[C@@H](CC(N)=O)C(=O)N[C@H]2C(=O)N[C@H]3C(=O)N[C@H](C(=O)N[C@H](C(=O)O)c4cc(O)cc(O)c4-c4cc3ccc4O)[C@H](O)c3ccc(c(Cl)c3)Oc3cc2cc(c3O[C@@H]2O[C@H](CO)[C@@H](O)[C@H](O)[C@H]2O[C@H]2C[C@](C)(N)[C@H](O)[C@H](C)O2)Oc2ccc(cc2Cl)[C@H]1O [Vancomycin]
MBC [1, 10]: 3.1 µg/mL
MIC [1, 10]: 1.5 µg/mL
MBC ([2]; Staphylococcus epidermidis): 6.25 µg/mL
MIC ([2]; Staphylococcus epidermidis): 6.25 µg/mL
MBC (S. epidermidis 154; [11]): 3.1 µg/mL
MIC (S. epidermidis 154; [11]): 1.5 µg/mL
MBC ([3]; Staphylococcus epidermidis): 3.1 µg/mL
MIC ([3]; Staphylococcus epidermidis): 3.1 µg/mL
MBC ([4]; Staphylococcus aureus): 3.1 µg/mL
MIC ([4]; Staphylococcus aureus): 1.5 µg/mL

DLTTKLWSSWGYYLG (Lactobacillus plantarum NC8) [α1-15]
enhancement of the inhibitory effects of β1-20 and β7-20 [1]: not further enhanced; also recorded: did not further enhance

DLTTKLWSSWGYYLGKKARWNL (Lactobacillus plantarum NC8) [α1-22]
enhancement of the inhibitory effects of β1-20 and β7-20 [1]: not further enhanced; also recorded: did not further enhance
inhibitory and bactericidal effects on S. epidermidis [1]: exerted inhibitory and bactericidal effects; also recorded: inhibited
disruption of liposome membranes (CF release) [5]: disrupted the membrane of the liposomes

Gentamicin
MBC ([1]; Table 2, antibiotic alone): 0.31 µg/mL
MIC ([1]; Table 2, antibiotic alone): 0.31 µg/mL
MIC (Escherichia coli; [12]): >50
MBC (Escherichia coli; [12]): >50
MIC (Escherichia coli; [13]): 3.125
MBC (Escherichia coli; [13]): 6.25
MIC (Escherichia coli; [7]): 1.56
MBC (Escherichia coli; [7]): 1.56
MIC (Escherichia coli; [8]): 1.56
MBC (Escherichia coli; [8]): 3.125
MBC (Enterococcus faecium; E. faecium, first isolate): > 50 µg/mL
MIC (Enterococcus faecium; E. faecium, first isolate): 50 µg/mL
MBC (Enterococcus faecium; E. faecium, second isolate): 50 µg/mL
MIC (Enterococcus faecium; E. faecium, second isolate): 50 µg/mL
MBC (Enterococcus faecium; [9]): > 50 µg/mL
MIC (Enterococcus faecium; [9]): > 50 µg/mL

H-DLTTKLWSSWGYYLGKKARWNLKHPYVQF-OH [PLNC8 α]
enhancement of the inhibitory effects of β1-20 and β7-20 [1]: not further enhanced
inhibitory and bactericidal effects on S. epidermidis [1]: inhibited
lysis of liposomes [5]: not
disruption of liposome membranes (CF release) [5]: disrupted the membrane of the liposomes
disruption of biofilms [6]: disruptive effects on the biofilms

H-SVPTSVYTLGIKILWSAYKHRKTIEKSFNKGFYH-OH [PLNC8 β]
growth inhibition of S. epidermidis [1]: inhibited
lysis of liposomes [5]: complete lysis of liposomes after 2 min
disruption of liposome membranes (CF release) [5]: Disruption of the liposome membranes
disruption of biofilms [6]: disruptive effects on the biofilms

SVPTSVYTLGIKILWSAYKH (Lactobacillus plantarum NC8) [β1-20]
growth inhibition of S. epidermidis [1]: most efficiently inhibited; also recorded: most effective in inhibiting S. epidermidis; also recorded: inhibited
disruption of liposome membranes (CF release) [5]: Disruption of the liposome membranes

Teicoplanin
MBC ([1]; Table 2, antibiotic alone): 1.5 µg/mL
MIC ([1]; Table 2, antibiotic alone): 1.5 µg/mL
MBC ([2]; Table 3, antibiotic alone): 25 µg/mL
MIC ([2]; Table 3, antibiotic alone): 12.5 µg/mL
MBC (S. epidermidis 154; Table 3, antibiotic alone): 1.5 µg/mL
MIC (S. epidermidis 154; Table 3, antibiotic alone): 1.5 µg/mL
MBC ([3]; Table 3, antibiotic alone): 6.25 µg/mL
MIC ([3]; Table 3, antibiotic alone): 3.1 µg/mL
MBC [4, 14]: 3.1 µg/mL
MIC [4, 14]: 0.78 µg/mL
MBC (S. epidermidis): 1.5 µg/mL
MIC (S. epidermidis): 1.5 µg/mL
MIC (Escherichia coli; [12]): >50
MBC (Escherichia coli; [12]): >50
MIC (Escherichia coli; [13]): >50
MBC (Escherichia coli; [13]): >50
MIC (Escherichia coli; [7]): >50
MBC (Escherichia coli; [7]): >50
MIC (Escherichia coli; [8]): >50
MBC (Escherichia coli; [8]): >50
MBC (Enterococcus faecium; E. faecium, first isolate): > 50 µg/mL
MIC (Enterococcus faecium; E. faecium, first isolate): > 50 µg/mL
MBC (Enterococcus faecium; E. faecium, second isolate): 25 µg/mL
MIC (Enterococcus faecium; E. faecium, second isolate): 0.39 µg/mL
MBC (Enterococcus faecium; [9]): 50 µg/mL
MIC (Enterococcus faecium; [9]): 0.39 µg/mL

YTLGIKILWSAYKH (Lactobacillus plantarum NC8) [β7-20]
growth inhibition of S. epidermidis [1]: most efficiently inhibited; also recorded: inhibited
disruption of liposome membranes (CF release) [5]: Disruption of the liposome membranes

YTLGIKILWSAYKHRKTIEKSFNKGFYH (Lactobacillus plantarum NC8) [β7-34]
growth inhibition of S. epidermidis [1]: inhibited
disruption of liposome membranes (CF release) [5]: Disruption of the liposome membranes
